The values that follow come from patent publication US12240840B2, “Amide-substituted heterocyclic compounds for the treatment of conditions related to the modulation of IL-12, IL-23 and/or IFN-alpha” (BRISTOL-MYERS SQUIBB COMPANY, priority 2018, dated 2025).

What is called IC50 is the concentration at which inhibition is half-maximal.

The subject of this test is IFNα-induced pSTAT5 (pY694) in CD3 positive cells of human whole blood. Briefly: IFNα-Induced STAT Phosphorylation in Human Whole Blood. The test is classed as cell-based. Conditions: Homo sapiens, 1 h compound incubation, 1000 U/mL recombinant human IFNα A/D for 15 min, pSTAT5 in CD3 positive population, read-out: Human WB IFNα-Induced Stat Phosph. (IC50). The gist of the method: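 Read-out is median fluorescence intensity of pSTAT5 (pY694) in the CD3-positive gate, by flow cytometry after fix/lyse and permeabilization. Before that, whole human blood anticoagulated with EDTA or ACD-A received compound for an hour and 1000 U/mL IFNα A/D for 15 min.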
`COc1c(Nc2cc(NC(=O)C3CC3)nnc2C(N)=O)cccc1-c1ncc(C(=O)NC2CCCCC2)s1` [Example 396]: the IC50 was 0.12 µM.
As for `[2H]C([2H])([2H])NC(=O)c1nnc(NC(=O)C2CC2)cc1Nc1cccc(-c2nc(C)c(C(=O)N3CCC3)s2)c1OC` [Example 358], the figure is 0.21 µM; as for `[2H]C([2H])([2H])NC(=O)c1nnc(NC(=O)C2CC2)cc1Nc1cccc(-c2cc(C)nn2CCNC(=O)COC)c1OC` [Example 461], 0.22 µM; as for `[2H]C([2H])([2H])NC(=O)c1nnc(NC(=O)C2CC2)cc1Nc1cccc(-c2ncc(C(=O)NCc3ccccc3)s2)c1OC` [Example 289], 0.15 µM.
As for `[2H]C([2H])([2H])NC(=O)c1nnc(NC(=O)C2CC2)cc1Nc1cccc(-c2noc(C3(O)CC3)n2)c1OC` [Example 74], the figure is 0.17 µM; as for `COc1c(Nc2cc(NC(=O)C3CC3)nnc2C(N)=O)cccc1-c1ncc(C(=O)N2CCOCC2)s1` [Example 245], 0.11 µM.
For the compound `[2H]C([2H])([2H])NC(=O)c1nnc(NC(=O)C2CC2)cc1Nc1cc(F)cc(-c2cc(NC(C)=O)n(C)n2)c1OC` [Example 500], the IC50 was 0.37 µM.
Next, `[2H]C([2H])([2H])NC(=O)c1nnc(Nc2cnc(OC)cn2)cc1Nc1cccc(-c2csc(C(=O)N3CCOCC3)n2)c1OC` [Example 564]: more than 10 µM.
As for `[2H]C([2H])([2H])NC(=O)c1nnc(NC(=O)C2CC2)cc1Nc1cccc(-c2ncc(CC(=O)NCCC3CCCN3C)o2)c1OC` (stereo not drawn) [Example 412], the figure is 4.62 µM.
Next, `[2H]C([2H])([2H])NC(=O)c1cnc(NC(=O)C2CC2)cc1Nc1cccc(-c2nc(C(C)N3CCN(S(C)(=O)=O)CC3)no2)c1OC` (stereo not drawn) [Example 223]: 0.69 µM; `COCC(=O)NCCn1ncc(-c2cccc(Nc3cc(NC(=O)C4CC4)ncc3C(N)=O)c2OC)n1` [Example 445]: 0.15 µM; `COc1c(Nc2cc(NC(=O)C3CC3)nnc2C(N)=O)cccc1-c1noc(CN2CCN(S(C)(=O)=O)CC2)n1` [Example 40]: 0.012 µM.
For the compound `[2H]C([2H])([2H])NC(=O)c1nnc(NC(=O)C2CC2)cc1Nc1cccc(-c2ncc(CNC(=O)COC)s2)c1OC` [Example 263], the concentration for half-maximal inhibition (IC50) worked out at 0.83 µM.
Regarding `[2H]C([2H])([2H])NC(=O)c1nnc(NC(=O)C2CC2)cc1Nc1cccc(-c2cc(C(=O)NCCC3CCCN3C)n(C)n2)c1OC` (stereo not drawn) [Example 533], the IC50 came out at 0.53 µM.
As for `[2H]C([2H])([2H])NC(=O)c1nnc(NC(=O)C2CC2)cc1Nc1cccc(-c2noc(CN(C)S(C)(=O)=O)n2)c1OC` [Example 65], the figure is 0.016 µM; as for `[2H]C([2H])([2H])NC(=O)c1nnc(NC(=O)C2CC2)cc1Nc1cccc(-c2cc(C(=O)NCCCOC)n(C)n2)c1OC` [Example 527], 0.95 µM.
As for `[2H]C([2H])([2H])NC(=O)c1nnc(NC(=O)C2CC2)cc1Nc1cc(F)cc(-c2cc(C(=O)N3CCNC(=O)C3)n(C)n2)c1OC` [Example 519], the figure is 0.57 µM; as for `[2H]C([2H])([2H])NC(=O)c1nnc(NC(=O)C2CC2)cc1Nc1cccc(-c2nc(CN3CC4CNCC4C3)no2)c1OC` (stereo not drawn) [Example 232], 6.51 µM.
As for `[2H]C([2H])([2H])NC(=O)c1nnc(NC(=O)C2CC2)cc1Nc1cccc(-c2ncc(C(=O)N[C@H]3CN4CCC3CC4)s2)c1OC` [Example 327], the figure is 0.15 µM.
Consider `[2H]C([2H])([2H])NC(=O)c1nnc(NC(=O)C2CC2)cc1Nc1cccc(-c2cc(C(=O)NCCOC)n(C)n2)c1OC` [Example 458], for which the IC50 came to 1.21 µM.
Next, `COc1c(Nc2cc(NC(=O)C3CC3)nnc2C)cccc1-c1ncn(C)n1` [Example 409, N-(5-((2-methoxy-3-(1-methyl-1H-1,2,4-triazol-3-yl)phenyl)amino)-6-methylpyridazin-3-yl)cyclopropanecarboxamide]: more than 10 µM.
Next, `[2H]C([2H])([2H])NC(=O)c1nnc(NC(=O)C2CC2)cc1Nc1cccc(-c2noc(C3(C(=O)N4CCOCC4)CC3)n2)c1OC` [Example 28]: 0.21 µM; `[2H]C([2H])([2H])NC(=O)c1nnc(NC(=O)C2CC2)cc1Nc1cccc(-c2nc([C@H](N)CO)no2)c1OC` [Example 221]: 0.16 µM; `[2H]C([2H])([2H])NC(=O)c1nnc(NC(=O)C2CC2)cc1Nc1cccc(-c2ncc(C(=O)NCCCC)s2)c1OC` [Example 314]: 0.26 µM.
Next, `[2H]C([2H])([2H])NC(=O)c1nnc(NC(=O)C2CC2)cc1Nc1cccc(-c2nc(CN3CC4CN(C(=O)OC)CC4C3)no2)c1OC` (stereo not drawn) [Example 234]: 0.3 µM; `[2H]C([2H])([2H])NC(=O)c1nnc(NC(=O)C2CC2)cc1Nc1cccc(-c2nc(C)c(C(=O)NCCOC)s2)c1OC` [Example 366]: 0.51 µM.
Turning to `[2H]C([2H])([2H])NC(=O)c1nnc(NC(=O)C2CC2)cc1Nc1cc(F)cc(-c2cc(C(=O)N3CCC[C@H]3CO)n(C)n2)c1OC` [Example 507], the IC50 was determined as 0.11 µM.
Next, `[2H]C([2H])([2H])NC(=O)c1nnc(NC(=O)C2CC2)cc1Nc1cccc(-c2cc(C)nn2CCN)c1OC` [Example 463]: 0.8 µM.
As for `[2H]C([2H])([2H])NC(=O)c1nnc(NC(=O)C2CC2)cc1Nc1cccc(-c2cc(C(=O)NCC(O)CO)n(C)n2)c1OC` (stereo not drawn) [Example 521], the figure is 2.41 µM; as for `[2H]C([2H])([2H])NC(=O)c1nnc(NC(=O)C2CC2)cc1Nc1cccc(-c2nc(CC(=O)NCCO)no2)c1OC` [Example 177], 1.03 µM.
Next, `[2H]C([2H])([2H])NC(=O)c1cnc(NC(=O)C2CC2)cc1Nc1cccc(-c2nc(CCOC(C)(C)C)no2)c1OC` [Example 227]: 0.62 µM; `[2H]C([2H])([2H])NC(=O)c1nnc(NC(=O)C2CC2)cc1Nc1cccc(-c2nc(CNC(=O)CN3CCN(S(C)(=O)=O)CC3)no2)c1OC` [Example 163]: 1.76 µM; `[2H]C([2H])([2H])NC(=O)c1nnc(NC(=O)C2CC2)cc1Nc1cccc(-c2nc(CN3CCS(=O)(=O)CC3)no2)c1OC` [Example 164]: 0.2 µM.
With `[2H]C([2H])([2H])NC(=O)c1nnc(NC(=O)C2CC2)cc1Nc1cccc(-c2noc(CC(=O)N3CCOCC3)n2)c1OC` [Example 23], the concentration for half-maximal inhibition (IC50) was determined as 0.06 µM.
Turning to `[2H]C([2H])([2H])NC(=O)c1nnc(NC(=O)C2CC2)cc1Nc1cccc(-c2cnn(CCN)n2)c1OC` [Example 448], the IC50 stood at 0.14 µM.
With `[2H]C([2H])([2H])NC(=O)c1nnc(NC(=O)C2CC2)cc1Nc1cccc(-c2cnn(CCNC(=O)COC)n2)c1OC` [Example 433], the half-inhibitory concentration (IC50) was 0.16 µM.
Next, `COc1c(Nc2cc(NC(=O)C3CC3)nnc2C(N)=O)cccc1-c1ncc(C(=O)NCCC2CCCN2C)s1` (stereo not drawn) [Example 247]: 0.1 µM; `[2H]C([2H])([2H])NC(=O)c1nnc(NC(=O)C2CC2)cc1Nc1cccc(-c2nc(C3(N)CC3)no2)c1OC` [Example 156]: 0.63 µM; `[2H]C([2H])([2H])NC(=O)c1nnc(NC(=O)C2CC2)cc1Nc1cccc(-c2nc(CNC(=O)CN3CCNCC3)no2)c1OC` [Example 162]: 2.73 µM.
Next, `[2H]C([2H])([2H])NC(=O)c1nnc(Nc2cnn(C)n2)cc1Nc1cccc(-c2ncc(C(=O)N(C)C)s2)c1OC` [Example 381]: 0.13 µM.
As for `[2H]C([2H])([2H])NC(=O)c1nnc(NC(=O)C2CC2)cc1Nc1cccc(-c2nc(CN3CCOCC3)no2)c1OC` [Example 124], the figure is 0.21 µM; as for `[2H]C([2H])([2H])NC(=O)c1nnc(NC(=O)C2CC2)cc1Nc1cccc(-c2noc(C(C)(C)O)n2)c1OC` [Example 73], 0.28 µM.
Take `[2H]C([2H])([2H])NC(=O)c1nnc(NC(=O)C2CC2)cc1Nc1cccc(-c2nc(CN3CCN(C(=O)CC#N)CC3=O)no2)c1OC` [Example 139]: the half-inhibitory concentration (IC50) was 0.41 µM.
Next, `[2H]C([2H])([2H])NC(=O)c1nnc(NC(=O)C2CC2)cc1Nc1cccc(-c2ncc(C(=O)N3CCC(CCN4CCCC4)CC3)s2)c1OC` [Example 318]: 0.08 µM; `[2H]C([2H])([2H])NC(=O)c1nnc(NC(=O)C2CC2)cc1Nc1cccc(-c2noc(C(C)(C)C(=O)N3CCOCC3)n2)c1OC` [Example 27]: 2.01 µM.
As for `[2H]C([2H])([2H])NC(=O)c1cnc(NC(=O)CC2CC2)cc1Nc1cccc(-c2noc(COC)n2)c1OC` [Example 86], the figure is 0.3 µM; as for `[2H]C([2H])([2H])NC(=O)c1nnc(NC(=O)C2CC2)cc1Nc1cccc(-c2ncc(C(C)O)s2)c1OC` (stereo not drawn) [Example 258], 0.13 µM; as for `COc1c(Nc2cc(NCC3CC3)nnc2C(N)=O)cccc1-c1noc(CNS(C)(=O)=O)n1` [Example 119], more than 10 µM.
Next, `[2H]C([2H])([2H])NC(=O)c1nnc(NC(=O)C2CC2)cc1Nc1cccc(-c2ncc(C(=O)N(C)C(C)C)s2)c1OC` [Example 292]: 0.16 µM.
For the compound `[2H]C([2H])([2H])NC(=O)c1nnc(NC(=O)C2CC2)cc1Nc1cccc(-c2nc([C@H](CO)NC(C)=O)no2)c1OC` [Example 199], the IC50 is 1.08 µM.
With `[2H]C([2H])([2H])NC(=O)c1nnc(NC(=O)C2CC2)cc1Nc1cc(F)cc(-c2cc(C(=O)N3CCC(N4CCCC4)CC3)n(C)n2)c1OC` [Example 516], the concentration for half-maximal inhibition (IC50) was determined as 0.17 µM.
As for `[2H]C([2H])([2H])NC(=O)c1nnc(NC(=O)C2CC2)cc1Nc1cccc(-c2cc(C(=O)N3CCC3)n(C)n2)c1OC` [Example 538], the figure is 0.39 µM.
Next, `[2H]C([2H])([2H])NC(=O)c1nnc(NC(=O)C2CC2)cc1Nc1cccc(-c2nc([C@@H](NC(=O)CC)[C@@H](C)O)no2)c1OC` [Example 190]: 2.36 µM.
As for `[2H]C([2H])([2H])NC(=O)c1nnc(NC(=O)C2CC2)cc1Nc1cccc(-c2cc(C(=O)N3CCN(O)CC3)n(C)n2)c1OC` [Example 478], the figure is 0.15 µM.
